In article PMC10530293, “Supramolecular multivalency effects enhance imine formation in aqueous medium allowing for dynamic modification of enzymatic activity” (Chemical Science, 2023):

Molecular target: T1, carbonic anhydrase (CA) from bovine erythrocytes (Bos taurus, UniProt P00921)
T1 construct: gene CA2; native full-length enzyme from bovine erythrocytes, N-terminal Ser1, 18 Lys
Test: UV monitoring of 4-nitrophenyl acetate hydrolysis (esterase activity)
Format: biochemical
Details: read-out: apparent IC50

T1 sequence (P00921 2-260): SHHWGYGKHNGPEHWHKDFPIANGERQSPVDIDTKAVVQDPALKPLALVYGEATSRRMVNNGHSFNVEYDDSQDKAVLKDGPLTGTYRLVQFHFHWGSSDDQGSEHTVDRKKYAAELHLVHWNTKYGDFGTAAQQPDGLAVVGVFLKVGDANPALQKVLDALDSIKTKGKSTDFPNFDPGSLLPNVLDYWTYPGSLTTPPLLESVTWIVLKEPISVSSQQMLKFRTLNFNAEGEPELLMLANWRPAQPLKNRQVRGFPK

IC50: ~1 µM
Compound: O=Cc1c(F)c(F)c(SC[C@H](NC(=O)OCc2ccccc2)C(=O)O)c(F)c1F [A8]
